# Test results as given in patent publication US6551793B1, “Carotenoid-associated proteins useful for high carotenoid accumulation and production in plants and other organisms” (Yissum Research Development Company of the Hebrew …, priority 1996, dated 2003).
# Assays:
# Assay type in all cases: cell-based, Cucumis sativus
# [1] = test system: CHRC mRNA; experiment: In vitro flower bud culture, Northern blot of CHRC mRNA in corollas; settings: 100 μM ABA, 2 hours
# Procedure: (§1) Young flower buds were cultured in vitro in the presence (GA) or the absence (C) of 100 μM GA3 for up to 48 hours. Northern and Western blot analyses of corollas, cultured for the indicated periods of time, were performed. The Northern blots (25 μg total RNA/lane) were hybridized with ^32P-labeled DNA inserts from CHRC (CHRC), […] (Psy), and 18s rDNA (18S). Western blot analysis (bottom panel of A) was performed using antibodies against CHRC protein (25 μg total protein/lane). The results of the CHRC Northern blot analyses are also shown graphically relative to the mRNA level of the untreated corollas at zero time (0) (arbitrary value of 1).
# (§2) Flower buds were cultured in the presence of 100 μm GA3 (GA), 100 μg/ml paclobutrazol following 2 hours of pretreatment with 100 μg/ml paclobutrazol (P), 100 μg/ml paclobutrazol +100 μm GA3 following 2 hours of pretreatment with 100 μg/ml paclobutrazol (P/GA), 100 μM ABA (ABA), or no phytohormones (C). Total RNA was extracted from corollas after 2 hours of treatment. Northern blot analyses were performed and probed as described in the legend to FIG. 7.
# (§3) Total RNA and protein were extracted from cucumber corollas of flower buds cultured for 6 hours in the presence of 100 μM GA3 (GA), 50 μM CHX following 2 hours of pretreatment with 50 μM CHX (CHX/GA), or no phytohormones (C). Northern (CHRC, Psy, and 18S) and Western (bottom panel) blot analyses were performed as described above.
# In FIG. 10, flower buds were cultured for 2 hours without (0) or with various concentrations of GA3. Total RNA was isolated from corollas, and a Northern blot was probed as above. The results of the CHRC Northern blot analyses are also shown graphically relative to the mRNA level of control corollas cultured without GA3 (arbitrary value of 1).
# (§4) This example describes plant material and conditions for in vitro flower bud culture. C. sativus L. plants (cultivar Shimahon, obtained from Zeraim Gadera, Israel) were grown under standard greenhouse conditions. In vitro culture of flower buds was performed at 23° C., under constant light from cool white fluorescent lamps with a photosynthetic photon flux density of 80 μmol/m^2 g, as described previously. Briefly, buds at developmental stage 1 (˜8 mm in length, 120 hours before anthesis) were collected and rinsed several times with sterile water. Buds were then placed for 24 hours on a perforated Parafilm (American National Can, Greenwich, Conn.) covering a Petri dish filled with double-distilled sterile water, such that only the bases of the buds were in contact with the liquid. Following equilibration, buds were transferred to a fresh Petri dish (zero time for the experiments) and treated with GA3, ABA, paclobutrazol, or CHX, as specified in the figure legends.
# This example describes conditions used for RNA isolation and Northern blot analysis. Total RNA from corollas of cucumber flower buds was isolated as described previously. RNA (15 and 25 μg) was fractionated through a 1.2% formaldehyde gel and transferred to a Hybond-N^− filter (Amersham Corp.). A random priming kit (Boehringer Mannheim) was used to radioactively labeled DNA probes. The blots were hybridized with ^32P-labeled cucumber CHRC cDNA (Vishnevetsky, et al., Plant Journal, 10: 1111-1118 (1996)) and reprobed with melon phytoene synthase (PSY) cDNA (MEL5), provided by D. Grierson of the Nottingham University, UK. The hybridization for analysis of CHRC expression was carried out in 0.263 M Na2HPO4, 7% SDS, […], 1% BSA for 16 hours at 60° C., and the washes were performed in 2×SSC/0.1% SDS at 50° C. followed by 2×SSC/0.1% SDS at 55° C., for 20 minutes each. Hybridization with the MEL5 probe was carried out at 55° C. using the same procedure. Following the hybridization, the blots were washed in 5×SSC/0.1% SDS at 45° C. for 20 minutes followed by 5×SSC/0.1% SDS at 50° C. and 2×SSC/0.1% SDS at 50° C. for 20 minutes each. […]
# [2] = test system: CHRD; experiment: In vitro flower bud culture, Western blot of CHRD in corollas; settings: flower buds cultured for 72 hours
# Procedure: CHRD levels in corollas were analyzed by western blotting (10 μg of total protein per lane) using antibodies against CHRD and horseradish peroxidase anti-rabbit IgG in an enhanced chemiluminescence detection system. FIG. 14B is a Western blot analysis of corollas (50 μg of total protein per lane) cultured for the indicated periods with (+) or without (−) GA3. The blot was decorated with antibodies against CHRD and alkaline phosphatase anti-rabbit 1 gG.
# In FIG. 15A, antibodies against CHRD or CHRC were used in a western blot analysis of CHRD and CHRC levels, respectively, in corollas cultured for 72 hours in the presence (E) or absence (C) of ethylene (50 μg of total protein per lane). In FIG. 15B, flowers were enclosed in aluminum foil in the greenhouse for 3 days and CHRD levels in etiolated (D) and control, nonetiolated (L) corollas were analyzed by western blotting (50 μg of total protein per lane).
# as §4
# CHRD protein was isolated from Cucumis sativus as a minor component, immunologically characterised and analyzed in terms of the regulation of its expression by developmental signals using methods and conditions described above for CHRC. […] Carotenoids are known to accumulate in dark.
# [3] = test system: CHRC mRNA; experiment: In vitro flower bud culture, Northern blot of CHRC mRNA in corollas; settings: 10 μM ABA
# [4] = test system: Psy mRNA; experiment: In vitro flower bud culture, Northern blot of Psy mRNA in corollas; settings: 100 μM ABA or 100 μg/ml paclobutrazol, 2 hours of treatment
# Procedure: as §1, §2, §3
# as §4, with “Following equilibration, buds were transferred to a fresh Petri dish (zero time for the experiments) and treated with GA3, ABA, paclobutrazol, or CHX, as specified in the figure legends.” left out
# This example describes conditions used for RNA isolation and Northern blot analysis. […] Autoradiograms were quantified by scanning suitably exposed films in a densitometer (Molecular Dynamics, Sunnyvale, Calif.). The amount of RNA loaded onto the gels was standardized by optical measurement, by quantitation of the ethidium bromide fluorescence of cytoplasmic rRNA. and by the level of hybridization with a DNA fragment coding for cytoplasmic 18S RNA.
structure (smiles),measurement,setting,value
"CC1=CC(=O)CC(C)(C)[C@@]1(O)/C=C/C(C)=C\C(=O)O [ABA, abscisic acid]",Down-regulation of CHRC mRNA level compared with control corollas,[1],2.5 times
same,"CHRD level per unit protein, down-regulation compared with control untreated corollas",[2],2.5±0.3 times
same,Down-regulation of CHRC expression,[3],only slightly down-regulated
same,Effect on Psy mRNA levels,[4],Neither ABA nor paclobutrazol markedly affected
